According to patent US8008456B2, “Compositions containing, methods involving, and uses of non-natural amino acids and polypeptides” (Ambrx, Inc., priority 2004, dated 2011):

Assay: pH stability tests
Assay type: physicochemical
Description: This example provides the results of pH stability tests that were conducted on certain illustrative non-natural amino acids as an aid for predicting their properties for incorporation into non-natural amino acid polypeptides.

Measured: pH stability

COCCOC(=O)NCCO/N=C(\C)C(=O)Nc1ccccc1 [drawing 134]
<1%: pH 4.0, 1 hour | pH 4.0, 1 day | pH 4.0, 2 days | pH 4.0, 3 days | pH 4.0, 4 days | pH 4.0, 5 days | pH 4.0, 6 days | pH 4.0, 7 days | pH 4.0, 10 days | pH 5.0, 1 hour | pH 5.0, 1 day | pH 5.0, 2 days | pH 5.0, 3 days | pH 5.0, 4 days | pH 5.0, 5 days | pH 5.0, 6 days | pH 5.0, 7 days | pH 5.0, 10 days | pH 6.5, 1 hour | pH 6.5, 1 day | pH 6.5, 2 days | pH 6.5, 3 days | pH 6.5, 4 days | pH 6.5, 5 days | pH 6.5, 6 days | pH 6.5, 7 days | pH 6.5, 10 days | pH 7.4, 1 hour | pH 7.4, 1 day | pH 7.4, 2 days | pH 7.4, 3 days | pH 7.4, 4 days | pH 7.4, 5 days | pH 7.4, 6 days | pH 7.4, 7 days | pH 7.4, 10 days | pH 8.0, 1 hour | pH 8.0, 1 day | pH 8.0, 2 days | pH 8.0, 3 days | pH 8.0, 4 days | pH 8.0, 5 days | pH 8.0, 6 days | pH 8.0, 7 days | pH 8.0, 10 days

COCCOC(=O)NCCO/N=C(\C)C(=O)c1ccccc1
<1%: pH 4.0, 1 hour | pH 4.0, 1 day | pH 4.0, 2 days | pH 4.0, 3 days | pH 4.0, 4 days | pH 4.0, 5 days | pH 4.0, 6 days | pH 4.0, 7 days | pH 4.0, 10 days | pH 5.0, 1 hour | pH 5.0, 1 day | pH 5.0, 2 days | pH 5.0, 3 days | pH 5.0, 4 days | pH 5.0, 5 days | pH 5.0, 6 days | pH 5.0, 7 days | pH 5.0, 10 days | pH 6.5, 1 hour | pH 6.5, 1 day | pH 6.5, 2 days | pH 6.5, 3 days | pH 6.5, 4 days | pH 6.5, 5 days | pH 6.5, 6 days | pH 6.5, 7 days | pH 6.5, 10 days | pH 7.4, 1 hour | pH 7.4, 1 day | pH 7.4, 2 days | pH 7.4, 3 days | pH 7.4, 4 days | pH 7.4, 5 days | pH 7.4, 6 days | pH 7.4, 7 days | pH 7.4, 10 days | pH 8.0, 1 hour | pH 8.0, 1 day | pH 8.0, 2 days | pH 8.0, 3 days | pH 8.0, 4 days | pH 8.0, 5 days | pH 8.0, 6 days | pH 8.0, 7 days | pH 8.0, 10 days
